Series [1] has as its system Candida albicans TIMM0136. Put plainly: Antifungal activity, liquid medium dilution method. As to conditions: Candida albicans TIMM0136, YNBG medium; for IC50: partial inhibition of growth, read-out: 50% inhibitory concentration (in parentheses); for MIC: substantially complete inhibition of growth, read-out: Minimal inhibitory concentration. In kind it is cell-based. The procedure: (§1) The antifungal activity of the above substance TKR1785 against various microorganisms was investigated. Using the liquid medium dilution method, the concentration which caused substantially complete Inhibition of growth was determined as minimal inhibitory concentration (μg/ml). The concentration causing a partial inhibition of growth was also determined as 50% inhibitory concentration (μg/ml) and is shown in parentheses of table 2. In the table, YNBG represents a medium containing 0.67% of yeast nitrogen base (Difco) and 1% of glucose. BHI represents a medium containing 0.5% of brain heart infusion bouillon (Nissui Pharmaceutical). YNBG-Tween represents a medium containing 0.67% of yeast nitrogen base, 0.5% bactocasitone, 2% of glucose, and 1% of Tween 40.

The test system of series [2] is Cryptococcus neoformans TIMM0354. Put plainly: Antifungal activity, liquid medium dilution method. As to conditions: Cryptococcus neoformans TIMM0354, YNBG medium; for IC50: read-out: 50% inhibitory concentration (in parentheses); for MIC: read-out: Minimal inhibitory concentration. In kind it is cell-based. The procedure:
as §1

For series [3], the system named is Aspargillus fumigatus TIMM1776. Briefly: Antifungal activity, liquid medium dilution method. In kind it is cell-based. The conditions noted are these: Aspargillus fumigatus TIMM1776, BHI medium; for IC50: read-out: 50% inhibitory concentration (in parentheses); for MIC: read-out: Minimal inhibitory concentration. As to the method: as §1
In another series the test system is Candida kefir TIMM0301. Put plainly: Antifungal activity, liquid medium dilution method. In kind it is cell-based. As to conditions: Candida kefir TIMM0301, YNBG medium; for MIC: read-out: Minimal inhibitory concentration. As to the method:
as §1

The subject of another series is ICR mice. Briefly: Toxicity in mice, intraperitoneal. In kind it is in vivo. The conditions noted are these: intraperitoneally, 50 mg/kg.
Series [4] is described as follows: Solubility in various solvents. In kind it is physicochemical.
The test system of series [5] is phospholipase A2 (derived from porcine pancreas). Put plainly: Phospholipase A2 inhibitory activity ([14C]palmitic acid release from [14C]phosphatidylcholine). In kind it is biochemical. As to the method: (§2) The inhibitory activity of TKR1785-I against phospholipase A2 (derived from porcine pancreas) and leukotriene (LT) C4 synthase (derived from the guinea-pig lung), which are enzymes related to the immune system, was determined. Phospholipase A2 activity was assayed for a hexane extract under acidic conditions by determining the [^14 C]palmitic acid released from [^14 C]phosphatidylcholine. LTC4 synthase activity was assayed by determining the yield of LTC4 from LTA4 by the RIA method.

The test system of series [6] is leukotriene (LT) C4 synthase (derived from the guinea-pig lung). Put plainly: LTC4 synthase inhibitory activity (yield of LTC4 from LTA4 by RIA). In kind it is biochemical. The procedure: as §2
For series [7], the system named is Malassezia furfur TIMM2782. Briefly: Antifungal activity, liquid medium dilution method. In kind it is cell-based. The conditions noted are these: Malassezia furfur TIMM2782, YNBG-Tween medium; read-out: 50% inhibitory concentration (in parentheses). The procedure:
as §1

Series [8] relates to Mixed lymphocyte reaction (C57BL/6 responder cells, BALB/c stimulator cells). Put plainly: Mixed lymphocyte reaction (MLR) inhibitory activity, 3H-thymidine uptake. In kind it is cell-based, mice. As to conditions: mouse spleen cells, 3H-thymidine uptake vs sample-free group, read-out: 50% inhibitory concentration, MLR-inhibitory activity. As to the method:
From C57BL/6 and BALB/c mice, the spleen was isolated and homogenized in a medium to provide a cell suspension. The cell suspension derived from C57BL/6 mice was passed through a nylon wool column to prepare a T cell-rich fraction (responder cells). The BALB/c-derived cell suspension was irradiated with X-rays to prepare stimulator cells. The responder cells and stimulator cells were mixed in a ratio of 1:1 and incubated in a CO2 incubator for 4 days. Following addition of 3H-thymidine, the cells were further culturen overnight. The cells were then recovered and the amount of ^3 H-thymidine uptake was determined. The samples (500, 125, 31.2, and 7.8 μg/ml solutions of dimethyl sulfoxide diluted with the medium) were respectively added in a proportion of 0.5% at mixing the responder cells with the stimulator cells to final concentrations of 25 to 0.039 μg/ml. The inhibitory activity was determined by comparison with the 3H-thymidine uptake in the sample-free group.

SMILES strings stand for the structures. ≈ marks a conversion by molar mass, not a printed value.

For `CCCCCCCCCCCCCC(O)CC(O)C(N)CC(=O)N[C@H](C(=O)NC(CO)CO)[C@@H](C)CC` (single isomer, unassigned) [TKR1785-II], the IC50 in [1] is 6.25 µg/mL (≈ 11.8 µM); in series [2], 6.25 µg/mL (≈ 11.8 µM); in [3] it was 25 µg/mL (≈ 47 µM); in the series with Candida kefir TIMM0301 (read-out: 50% inhibitory concentration (in parentheses)), 6.25 µg/mL (≈ 11.8 µM). Besides, the MIC in series [1] was determined as 12.5 µg/mL (≈ 23.5 µM); in [2], 12.5 µg/mL (≈ 23.5 µM); in [3], 50 µg/mL (≈ 94 µM); with Candida kefir TIMM0301, 12.5 µg/mL (≈ 23.5 µM). Also, the Toxic response entry in the series on ICR mice was “no toxic response was found”.
Turning to `CCCCCCCCCCCCCC(O)CC(O)C(N)CC(=O)N[C@H](C(=O)NC(CO)CO)C(C)C` (single isomer, unassigned) [TKR1785-I], the “Solubility in chloroform and hexane” value in series [4] (chloroform, hexane) was “only sparingly soluble in chloroform and hexane”. In series [4] (methanol, water), the “Solubility in methanol and water” value is “soluble in methanol and water”. For the same compound, the “Inhibition (%)” value is 33% in [5] (Phospholipase A2, test concentration 10 μg/ml); 92% in series [5] (Phospholipase A2, test concentration 100 μg/ml); 21% in series [6] (test concentration 30 μg/ml); 98% in series [6] (test concentration 300 μg/ml). Moreover, the IC50 was determined as 6.25 µg/mL (≈ 12.1 µM) in [1]; 3.13 µg/mL (≈ 6.05 µM) in [2]; 12.5 µg/mL (≈ 24.1 µM) in series [7]; 3.13 µg/mL (≈ 6.05 µM) in series [3]; 0.41 µg/mL (≈ 0.792 µM) in series [8]. Moreover, the MIC turned out to be 12.5 µg/mL (≈ 24.1 µM) in [1], 6.25 µg/mL (≈ 12.1 µM) in series [2], 25 µg/mL (≈ 48.3 µM) in [3] and 6.25 µg/mL (≈ 12.1 µM) in the series on Candida kefir TIMM0301. Further, the Toxic response result in the series with ICR mice is “no toxic response was found”.

These data come from patent publication US6103767A, “Physiologically active substances TKR1785's, process for the preparation thereof, and microbe” (Takara Shuzo Co., Ltd., priority 1996, dated 2000).
